This passage reports tumor growth response results from paper PMC4209961 (Journal of nuclear medicine : official publication, Society …, 2013).

In the assay the test system is U87MG tumors. The experiment in a line: Tumor growth. It counts as in vivo, athymic nude mice. The conditions noted are these: two doses of doxorubicin 5 mg/kg/dose two days apart, tail vein; at day 5 after the treatment started, P < 0.05.

Turning to `COc1cccc2c1C(=O)c1c(O)c3c(c(O)c1C2=O)C[C@@](O)(C(=O)CO)C[C@@H]3O[C@H]1C[C@H](N)[C@H](O)[C@H](C)O1` [doxorubicin], the tumor growth response entry is recorded as “significant growth inhibition”.
